This note sets out measurements from patent publication US11352352B2, “Aminopyrimidine compound, preparation method therefor and use thereof” (BEIJING ADAMADLE BIOTECHNOLOGY LIMITED LIABILITY COMPANY, priority 2017, dated 2022).

Common to all, as to test: Cell proliferation inhibition experiment, CellTiter-Glo (CTG) method
Common to all, as to type: cell-based
A general note: In ATP-based viability assays light output follows the ATP content of the culture.

One test concerns A-431. Conditions: A-431 cells, 3 days. An outline of the steps: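 For each line, compound is added at nine threefold-spaced concentrations, highest 30 μM (A-431) or 1.111 μM (NCI-H1975, PC-9), and cells grow 3 days at 37 °C. CellTiter-Glo luminescence gives survival relative to solvent control, fitted to yield IC50.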
A further test has as its system PC-9. Conditions: PC-9 cells, 3 days. The gist of the method:
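Cells in log-phase growth (viability above 90% by trypan blue) were seeded at 90 μL per well in black-walled, clear-bottom 96-well plates and incubated overnight at 37° C., 5% CO2. A T0 plate was read the next day. Test compounds were added at nine concentrations in triplicate with a solvent control. Viability was measured by CellTiter-Glo luminescence on EnVision, and IC50 came from non-linear S-curve fitting in GraphPad Prism 5.0.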

In another test the test system is NCI-H1975. The conditions noted are these: for IC50: NCI-H1975 cells, CTG, 3 days; for A-431/NCI-H1975 Selectivity: ratio of A-431 IC50 to NCI-H1975 IC50. An outline of the steps:
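NCI-H1975 cells with viability above 90% by trypan blue were seeded at 90 μL per well in black 96-well plates and incubated overnight at 37° C., 5% CO2. Compounds were added at nine concentrations in triplicate, and viability was measured with CellTiter-Glo luminescence on EnVision. IC50 came from non-linear S-curve fitting in GraphPad Prism 5.0.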

In the case of `C=CC(=O)Nc1cc(Nc2cc(-c3ccc4c(cnn4C)c3)ncn2)c(OCC)cc1N(C)CCN(CC)CC` [compound 93], the IC50 (as a rule, the concentration at which inhibition is half-maximal) in the test with A-431 (Homo sapiens, A-431, 72 h) was 854 nM; in the test on PC-9 (Homo sapiens, PC-9, 72 h), 18.5 nM; with NCI-H1975 (Homo sapiens, NCI-H1975, 72 h), 20.5 nM. Also, the “A-431/NCI-H1975 Selectivity” value with NCI-H1975 is 41.7.
The corresponding values for `C=CC(=O)Nc1cc(Nc2cc(-c3ccc4c(c3)ncn4C)ncn2)c(OC)cc1N(C)CCN1CCN(C(C)=O)CC1` [compound 130] are 2310 nM, 43.2 nM, 56.6 nM and 40.9.
For `C=CC(=O)Nc1cc(Nc2cc(-c3ccc4c(cnn4C)c3)ncn2)c(OCC)cc1N(C)CCNC(C)(C)C` [compound 121] the same measures were 2310 nM, 31.1 nM, 40.2 nM and 57.6.
For `C=CC(=O)Nc1cc(Nc2cc(-c3ccc4c(cnn4C)c3)ncn2)c(OC)cc1N1CCC(N2CCOCC2)CC1` [compound 208], the results for the IC50 in the test on A-431, in the test on PC-9 and in the test on NCI-H1975 were 1100 nM, 10.7 nM and 20 nM, respectively. In addition, the “A-431/NCI-H1975 Selectivity” value with NCI-H1975 is reported as 54.8.
As to `C=CC(=O)Nc1cc(Nc2cc(-c3ccc4c(cnn4C(C)C)c3)ncn2)c(OC)cc1N(C)C1CCN(C)CC1` [compound 85], the IC50 in the test with A-431 (Homo sapiens, A-431, 72 h) worked out at 1840 nM; in the test with PC-9 (Homo sapiens, PC-9, 72 h) it was 56.7 nM; in the test on NCI-H1975 (Homo sapiens, NCI-H1975, 72 h), 72.3 nM. The “A-431/NCI-H1975 Selectivity” value with NCI-H1975 is 25.4.
For `C=CC(=O)Nc1cc(Nc2cc(-c3ccc4c(cnn4C(C)C)c3)ncn2)c(OC)cc1N1CCC(N2CCN(C)CC2)CC1` [compound 84] the same measures were 988 nM, 27.5 nM, 34.4 nM and 28.7.
`C=CC(=O)Nc1cc(Nc2cc(-c3ccc4c(cnn4C)c3)ncn2)c(OC)cc1N1CCC(N2CCOCC2)CC1` [compound 152]: the IC50 with A-431 was 1970 nM; in the test with PC-9, 43.2 nM; with NCI-H1975 (Homo sapiens, NCI-H1975, 72 h) it was 23.6 nM. The “A-431/NCI-H1975 Selectivity” value in the test on NCI-H1975 came to 83.3.
For `C=CC(=O)Nc1cc(Nc2nccc(-c3ccc4c(cnn4C)c3)n2)c(OC)cc1N1CCN(C)CC1` [compound 228], the IC50 was 1580 nM in the test with A-431 (Homo sapiens, A-431, 72 h); 35.7 nM in the test on PC-9 (Homo sapiens, PC-9, 72 h); 65.7 nM in the test on NCI-H1975 (Homo sapiens, NCI-H1975, 72 h). The “A-431/NCI-H1975 Selectivity” value with NCI-H1975 was found to be 24.1.
As for `C=CC(=O)Nc1cc(Nc2cc(-c3ccc4c(cnn4C)c3)ncn2)c(OC)cc1N1CCN(C)[C@@H](C)C1` [compound 30], the half-inhibitory concentration (IC50) with A-431 (Homo sapiens, A-431, 72 h) amounted to 1350 nM; with PC-9 (Homo sapiens, PC-9, 72 h), 24.7 nM; in the test on NCI-H1975 (Homo sapiens, NCI-H1975, 72 h) it was 32.4 nM. Besides, the “A-431/NCI-H1975 Selectivity” value with NCI-H1975 is 41.8.
The corresponding values for `C=CC(=O)Nc1cc(Nc2nccc(-c3ccc4c(cnn4C)c3)n2)c(OC)cc1N1CCN(CCN(C)C)CC1` [compound 113] are 1360 nM, 45.6 nM, 56.6 nM and 24.0.
For `C=CC(=O)Nc1cc(Nc2cc(-c3ccc4c(cnn4C)c3)ncn2)c(OC)cc1C(=O)N1CCN(C)CC1` [compound 12] the same measures were 4130 nM, 56.9 nM, 53.1 nM and 77.7.
For `C=CC(=O)Nc1cc(Nc2cc(-c3ccc4c(cnn4CC)c3)ncn2)c(OC)cc1N(C)CCN(C)C` [compound 14] the same measures were 1150 nM, 5.9 nM, 6.1 nM and 188.0.
Take `C=CC(=O)Nc1cc(Nc2nccc(-c3ccc4c(cnn4C)c3)n2)c(OC)cc1N1C[C@@H](C)N(C)[C@@H](C)C1` [compound 229]: the IC50 with A-431 (Homo sapiens, A-431, 72 h) came to 1620 nM; in the test with PC-9 (Homo sapiens, PC-9, 72 h), 68.1 nM; with NCI-H1975 (Homo sapiens, NCI-H1975, 72 h), 93.8 nM. Moreover, the “A-431/NCI-H1975 Selectivity” value in the test with NCI-H1975 was 17.3.
For `C=CC(=O)Nc1cc(Nc2cc(-c3ccc4c(cnn4C)c3)ncn2)c(OC)cc1N1CCN(C)C[C@H]1C` [compound 21] the same measures were 2770 nM, 29.6 nM, 46.4 nM and 59.7.
For `C=CC(=O)Nc1cc(Nc2cc(-c3ccc4c(cnn4CC)c3)ncn2)c(OC(F)F)cc1N(C)CCN(C)C` [compound 92] the same measures were 764 nM, 13.1 nM, 9.3 nM and 82.1.
For `C=CC(=O)Nc1cc(Nc2cc(-c3ccc4c(cnn4C)c3)ncn2)c(OC)cc1N(C)C1CCCN(C)C1` (stereo not drawn) [compound 69] the same measures were 1830 nM, 10.4 nM, 13.4 nM and 136.8.
Regarding `C=CC(=O)Nc1cc(Nc2cc(-c3ccc4c(cnn4C)c3)ncn2)c(OC(F)F)cc1N1CCC(N2CCN(C(C)C)CC2)CC1` [compound 147], the IC50 in the test on A-431 (Homo sapiens, A-431, 72 h) stood at 978 nM; in the test on PC-9 (Homo sapiens, PC-9, 72 h), 24.7 nM; in the test with NCI-H1975 (Homo sapiens, NCI-H1975, 72 h) it was 18.4 nM. Besides, the “A-431/NCI-H1975 Selectivity” value in the test on NCI-H1975 turned out to be 53.2.
On to `C=CC(=O)Nc1cc(Nc2cc(-c3ccc4cnn(C)c4c3)ncn2)c(OC)cc1N1C[C@@H](C)N(C)[C@@H](C)C1` [compound 154], for which the IC50 with A-431 (Homo sapiens, A-431, 72 h) was determined as 1400 nM; in the test with PC-9 (Homo sapiens, PC-9, 72 h), 36.4 nM; in the test on NCI-H1975 (Homo sapiens, NCI-H1975, 72 h), 34.7 nM.
Take `C=CC(=O)Nc1cc(Nc2cc(-c3ccc4c(cnn4C)c3)ncn2)c(OC)cc1N1CCN(C)C(C)C1` (stereo not drawn) [compound 22]: the IC50 in the test on A-431 (Homo sapiens, A-431, 72 h) came out at 1060 nM; in the test with PC-9 (Homo sapiens, PC-9, 72 h), 13.4 nM; in the test on NCI-H1975 (Homo sapiens, NCI-H1975, 72 h) it was 18.1 nM. The “A-431/NCI-H1975 Selectivity” value with NCI-H1975 was 58.3.
For `C=CC(=O)Nc1cc(Nc2cc(-c3ccc4cnn(C)c4c3)ncn2)c(OC)cc1N1CCN(CC)[C@@H](C)C1` [compound 48] the same measures were 1390 nM, 49.7 nM, 67.2 nM and 20.7.
The corresponding values for `C=CC(=O)Nc1cc(Nc2cc(-c3cc(F)c4c(cnn4C)c3)ncn2)c(OC)cc1N(C)CCN(C)C` [compound 6] are 1720 nM, 19.4 nM, 32.1 nM and 53.7.
The corresponding values for `C=CC(=O)Nc1c(N(C)CCN(C)CC)cc(OC)c(Nc2cc(-c3ccc4cnn(C)c4c3)ncn2)c1F` [compound 201] are 1340 nM, 21.1 nM, 24.5 nM and 54.9.
On to `C=CC(=O)Nc1cc(Nc2cc(-c3ccc4c(cnn4C)c3)ncn2)c(OC)cc1N1CCN(CC)[C@@H](C)C1` [compound 28], for which the IC50 in the test with A-431 (Homo sapiens, A-431, 72 h) was found to be 1430 nM; in the test with PC-9 (Homo sapiens, PC-9, 72 h), 19.6 nM; in the test on NCI-H1975 (Homo sapiens, NCI-H1975, 72 h), 32.3 nM. Moreover, the “A-431/NCI-H1975 Selectivity” value in the test on NCI-H1975 was 44.2.
For `C=CC(=O)Nc1cc(Nc2cc(-c3ccc4c(cnn4C)c3)ncn2)c(OC(C)C)cc1N(C)CCN(C)C` [compound 75] the same measures were 1500 nM, 13.6 nM, 24.3 nM and 61.7.
Take `C=CC(=O)Nc1cc(Nc2cc(-c3ccc4c(cnn4C)c3)ncn2)c(OC(F)F)cc1N(C)CCN(CC)CC` [compound 95]: the IC50 in the test with A-431 (Homo sapiens, A-431, 72 h) is 997 nM; with PC-9 (Homo sapiens, PC-9, 72 h) it was 12.2 nM; with NCI-H1975 (Homo sapiens, NCI-H1975, 72 h), 6.7 nM. For the same compound, in the test with NCI-H1975, the “A-431/NCI-H1975 Selectivity” value was 148.9.
The corresponding values for `C=CC(=O)Nc1cc(Nc2cc(-c3ccc4c(cnn4C)c3)ncn2)c(OC)cc1N1CCC(N2CCCC2=O)CC1` [compound 212] are 2030 nM, 54.7 nM, 71.8 nM and 28.3.
The corresponding values for `C=CC(=O)Nc1cc(Nc2nccc(-c3ccc4c(cnn4C)c3)n2)c(OC)cc1N1CCN(CCO)CC1` [compound 278] are 2480 nM, 40.9 nM, 117 nM and 21.2.
For `C=CC(=O)Nc1cc(Nc2cc(-c3ccc4c(cnn4C)c3)ncn2)c(OC(F)F)cc1N(C)CCN(C)C(C)C` [compound 256] the same measures were 992 nM, 19.2 nM, 9.6 nM and 103.3.
Consider `C=CC(=O)Nc1cc(Nc2cc(-c3ccc4cnn(C)c4c3)ncn2)c(OC(F)F)cc1N1C[C@@H](C)C(N)[C@@H](C)C1` (stereo partly drawn) [compound 160], for which the IC50 in the test on A-431 (Homo sapiens, A-431, 72 h) amounted to 2080 nM; with PC-9 (Homo sapiens, PC-9, 72 h) it was 32.7 nM; with NCI-H1975 (Homo sapiens, NCI-H1975, 72 h), 39.2 nM. For the same compound, the “A-431/NCI-H1975 Selectivity” value with NCI-H1975 stood at 53.0.
The corresponding values for `C=CC(=O)Nc1cc(Nc2nccc(-c3ccc4c(cnn4CC)c3)n2)c(OC)cc1N(C)CCN(CC)CC` [compound 240] are 2980 nM, 110 nM, 62 nM and 48.0.
For `C=CC(=O)Nc1cc(Nc2cc(-c3ccc4c(cnn4C)c3)ncn2)c(OC)cc1N(C)CCN1CCOCC1` [compound 38] the same measures were 3310 nM, 89.7 nM, 75.9 nM and 43.7.
